Data reported in patent EP4703362A1 (Chengdu Sibeibo Pharmaceutical Technology Co., Ltd, priority 2023, dated 2024).
Like-named read-outs stand apart in the source and are kept apart here.

Key:
[1] = stability test in liver microsomes (rat); format: in vitro ADME
Protocol: (§1) The stability of the compound of the present invention in liver microsomes of rat, monkey and human was determined. Tested compounds of the present invention were the compounds in Examples 6, 8 and 29, and a control drug was Zavegepant.
(§2) 3.2 An appropriate amount of liver microsome solution was transferred into a 1 mL 96-deep-well plate, added with a tested drug liquid (or a probe substrate solution), and pre-incubated in a thermal mixer at 37°C for 5 minutes. Two parts of mixed solutions were taken out from the system and added with 1×PBS to replace NADPH, and the mixed solutions were taken out at 0 and 60 minutes respectively, and added with methanol (containing an internal standard) to terminate the reaction. In the remaining mixed system, each well was added with NADPH to start the reaction. In the tested substance group, mixed solutions were taken out from the system at 0, 5, 15, 30, 45 and 60 minutes, and in the control group, mixed solutions were taken out from the system at 0, 30 and 60 minutes, and the mixed solutions were added methanol (containing an internal standard) to terminate the reaction. All samples of the terminated reaction were mixed evenly and centrifuged in a centrifuge at 3800 rpm for 15 minutes, and the supernatant was taken for LC-MS/MS analysis.
(§3) A peak area was determined by an extracted ion chromatogram. A slope value k was determined by linear regression of a remaining percentage of a parent drug relative to a natural logarithm of an incubation time curve. According to the slope, in-vitro half-life periods (t1/2) were respectively calculated, and in-vitro intrinsic clearance rates (CLint, represented by µL/min/mg protein) were calculated. Calculation formulas were as follows: t1/2 = ln2/k = 0.693/k; and CLint = 0.693/t1/2 /liver microsome protein concentration [formula]

[2] = stability test in liver microsomes (monkey); format: in vitro ADME
Protocol: as §1, §2, §3

[3] = stability test in liver microsomes (human); format: in vitro ADME
Protocol: as §1, §2, §3

[4] = plasma protein binding rate test, equilibrium dialysis (rat); format: in vitro ADME, SD rat; details: 1 µM, 6 hours, 37°C
Protocol: (§4) Protein binding rates of the compound of the present invention in plasma of rat, monkey and human were determined by an equilibrium dialysis method. Tested compounds of the present invention were the compounds in Examples 6, 8 and 29, and a control drug was Zavegepant.
(§5) 3.1 A dry dialysis membrane was rinsed with ultrapure water for 2-3 times, and then soaked in a phosphate buffer for 1 hour for later use. Polytetrafluoroethylene module was soaked in 20% ethanol for 30 minutes, and then surface moisture was dried with dust-free paper for later use. The pretreated dialysis membrane was assembled into a dialysis plate according to the product specification, and one side (receptor compartment) of an osmotic membrane in each dialysis well was added with 100 µL of receptor fluid (100 mM phosphate buffer solution plus 0.002% Tween 80).
(§6) 3.2 The plasma was put into a centrifuge tube, a working solution of a tested substance was added into the plasma, wherein a final concentration was 1 µM, and the mixture was turned upside down and mixed evenly (this step was carried out in ice bath). 20 µL of drug-containing plasma each was taken, and was respectively transferred to a 96-well sample plate according to two parts in parallel, and stored in a refrigerator at -20°C as a T0 sample.
(§7) 3.3 Another 100 µL of the above drug-containing plasma was transferred to the other side (sample compartment) of the membrane in the dialysis device according to two parts in parallel, and incubated under vibration at a constant temperature of 37°C for 6 hours. After 6 hours of incubation, 20 µL of the plasma was respectively taken out from the receptor compartment and the sample compartment after equilibration to obtain samples B and A. The samples B and A were respectively added with corresponding volumes of corresponding blank plasma or phosphate buffer solution (containing 0.002% Tween 80), so that a volume ratio of the plasma to the buffer solution in each sample well was 1: 1.
(§8) 3.4 All sample wells were added with 250 µL of methanol solution containing an internal standard, mixed evenly and then centrifuged in a centrifuge at 3800 rpm for 10 minutes. […]
(§9) A plasma protein binding rate and a recovery rate of the compound in plasma were calculated by the following formulas: dissociation percentage (%) = CB /CA; [formula] plasma protein binding rate (fb%) = 1−dissociation percentage (%); [formula] recovery rate (%) = (CB+CA)/CT0 [formula] wherein CB was a concentration of the compound in the receptor fluid after equilibrium dialysis; CA was a concentration of the compound in the drug-containing plasma after equilibrium dialysis; and CT0 was an initial concentration of the compound in plasma.

[5] = plasma protein binding rate test, equilibrium dialysis (monkey); format: in vitro ADME, cynomolgus monkey; details: 1 µM, 6 hours, 37°C
Protocol: as §4, §5, §6, §7, §8, §9

[6] = plasma protein binding rate test, equilibrium dialysis (human); format: in vitro ADME; details: 1 µM, 6 hours, 37°C
Protocol: as §4, §5, §6, §7, §8, §9

[7] = in-vivo pharmacokinetic study on SD rats, intravenous and intranasal administration; details: for AUC: read-out: Area under curve AUC; for half-life: read-out: Half-life period t1/2 (converted)
Protocol: Species: SD rats, male, SPF level.
2.1 An appropriate amount of drug was accurately weighed and added with 50 mM succinate buffer (diluted with D5W, pH=5-6), and mixed evenly and dissolved fully in an ultrasonic and vortexed mode to obtain a 0.2 mg/mL drug solution for intravenous (IV) administration.
2.2 An appropriate amount of drug was accurately weighed and added with 50 mM succinate buffer (diluted with pure water, pH=5-6), and mixed evenly and dissolved fully in an ultrasonic and vortexed mode to obtain a 10 mg/mL drug solution for intranasal (IN) administration.
5 minutes, 10 minutes, 15 minutes, 0.5 hour, 1 hour, 2 hours, 4 hours, 8 hours and 24 hours after administration.
Blood was collected through a jugular vein, about 0.2 mL of each sample was collected, EDTA-K2 was used for anticoagulation, the collected blood sample was placed on ice, and plasma was centrifugally separated within 2 hours (at 6000 g and 2-8°C for 5 minutes). The collected plasma samples were stored in a refrigerator at -80°C before analysis, and the remaining plasma samples after analysis were continuously stored in the refrigerator at -80°C for temporary storage.
A concentration of a specified compound in plasma was determined by an LC-MS/MS method, and main pharmacokinetic parameters were calculated by a Winnolin 8.3 non-compartmental model.

CGRP receptor complex = target: T1, CGRP receptor complex (Homo sapiens, UniProt O60894+Q16602); test: determination of cell functional antagonism - cAMP determination; format: cell-based
T1 construct: host or cells: SK-N-MC
T1 sequence (Q16602 23-461): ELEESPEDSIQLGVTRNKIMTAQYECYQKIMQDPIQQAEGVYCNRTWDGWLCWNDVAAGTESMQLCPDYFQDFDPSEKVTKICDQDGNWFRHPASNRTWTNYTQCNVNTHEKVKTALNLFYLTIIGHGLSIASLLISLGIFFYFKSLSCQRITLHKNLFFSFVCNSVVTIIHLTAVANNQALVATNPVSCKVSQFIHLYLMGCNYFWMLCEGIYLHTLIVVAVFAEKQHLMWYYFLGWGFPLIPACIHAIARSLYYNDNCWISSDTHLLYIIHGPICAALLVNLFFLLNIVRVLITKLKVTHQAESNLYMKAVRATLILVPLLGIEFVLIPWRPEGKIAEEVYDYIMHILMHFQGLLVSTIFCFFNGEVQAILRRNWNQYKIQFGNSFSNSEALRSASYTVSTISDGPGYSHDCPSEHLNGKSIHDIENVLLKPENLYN
T1 sequence (O60894 27-148): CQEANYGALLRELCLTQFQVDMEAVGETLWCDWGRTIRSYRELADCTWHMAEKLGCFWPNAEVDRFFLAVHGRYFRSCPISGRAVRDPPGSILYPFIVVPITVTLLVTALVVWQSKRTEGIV
Protocol: 1.Experimental principle A CGRP receptor complex was coupled with Gs in G protein, the combination of CGRP and CGRP receptor complex led to Gs activation, and cAMP (3',5'-cyclic adenosine monophosphate) was produced. 2.Experimental purpose The ability of the compound of the present invention to inhibit CGRP-stimulated cAMP formation in SK-N-MC cells was determined. 3.Experimental materials 3.1Experimental cell line: SK-N-MC (neuroepithelioma cells) from National Science and Technology Infrastructure - Biomedical Materials and Cell Resources. 3.2Reagents and consumables
4.Experimental steps • 4.1Cell preparation: The SK-N-MC cells were resuscitated and cultured in advance, and a cell confluence degree should be 70%-80% before use. • 4.2A sample dilution, a tested compound and α-CGRP (human) were prepared. • 4.3Cell seeding and drug effect: The SK-N-MC cells were digested, centrifuged, then resuspended with the sample dilution, and inoculated into a 384-well plate. Each well was added with the α-CGRP (human) and the tested compound respectively, and blown and mixed evenly. The well plate was adhered with a sealing film, and placed on an enzyme-labeled incubator to incubate at 25°C. • 4.4cAMP determination: carried out according to LANCE Ultra cAMP Kit specification Eu-cAMP tracer and ULight-anti-cAMP working solutions were prepared in the dark, respectively added into the well plate, and blown and mixed evenly.

[8] = male, rat, plasma, other: intranasal, IN@2 mg/kg
[9] = inhibition of CGRP-stimulated cAMP formation in SK-N-MC cells, read-out: IC50

With `Cc1cc(C[C@@H](NC(=O)N2CCC(c3cc4c([nH]c3=O)SCC4)CC2)C(=O)N2CCN(C3CCN(C)CC3)CC2)cc2cn[nH]c12` [Example 8, (R)-N-(3-(7-methyl-1H-indazole-5-yl)-1-(4-(1-methylpiperidine-4-yl)piperazine-1-yl)-1-oxopropan-2-yl)-4-(6-oxo-2,3,6,7-tetrahydrothieno[2,3-b]pyridine-5-yl)piperidine-1-formamide] as the compound, how does the half-life at 1 µM ([1]; 1.0 µM) read?
Its half-life at 1 µM is greater than 2 h.

And the microsomal CLint at 1 µM ([1]; 1.0 µM)?
The microsomal CLint at 1 µM was 1.6 µL/min/mg.

And the “% remaining (60 min)” value [1]?
The value was 90.7%.

What about the half-life at 1 µM ([2]; 1.0 µM) of the same compound?
Its half-life at 1 µM is 1.48 h.

And the microsomal CLint at 1 µM ([2]; 1.0 µM)?
The microsomal CLint at 1 µM was 15.6 µL/min/mg.

And the “% remaining (60 min)” value [2]?
Its value is 61.6%.

And the half-life at 1 µM ([3]; 1.0 µM)?
The half-life at 1 µM was greater than 2 h.

What about the microsomal CLint at 1 µM ([3]; 1.0 µM) of the same compound?
The microsomal CLint at 1 µM was 3.2 µL/min/mg.

And the “% remaining (60 min)” value [3]?
Its value is 85.8%.

What about the “fb (%)” value [4] of the same compound?
The value was 69.4%.

What about the “fb (%)” value [5] of the same compound?
Its value is 47.7%.

And the “fb (%)” value [6]?
Its value is 64.1%.

And the “Apparent clearance CL” value ([7]; IV@1 mg/kg)?
Its value is 5.94 mL/min/kg.

And the AUC ([7]; male, rat, plasma, IV@1 mg/kg)?
The AUC was 2850 ng·h/mL.

What about the half-life ([7]; male, rat, plasma, IV@1 mg/kg) of the same compound?
Its half-life is 7.58 h.

And the Vd ([7]; male, rat, plasma, IV@1 mg/kg, read-out: Volume of distribution steady-state Vss)?
The Vd was 0.5 L/kg.

And the AUC [7, 8]?
Its AUC is 626 ng·h/mL.

What about the bioavailability ([7]; male, rat, plasma, other: intranasal, IN@2 mg/kg, read-out: Bioavailability F%) of the same compound?
The bioavailability was 11%.

What about the Cmax ([7]; male, rat, plasma, other: intranasal, IN@2 mg/kg, read-out: Concentration to peak Cmax) of the same compound?
The Cmax was 204 ng/mL.

And the half-life [7, 8]?
The half-life was 3.41 h.

For `[2H]C([2H])([2H])N1CCC(N2CCN(C(=O)[C@@H](Cc3cc(C)c4[nH]ncc4c3)NC(=O)N3CCC(c4cc5c([nH]c4=O)SCC5)CC3)CC2)CC1` [Example 29, (R)-N-(3-(7-methyl-1H-indazole-5-yl)-1-(4-(1-(methyl-d3)piperidine-4-yl)piperazine-1-yl)-1-oxopropan-2-yl)-4-(6-oxo-2,3,6,7-tetrahydrothieno[2,3-b]pyridine-5-yl)piperidine-1-formamide], which “% remaining (60 min)” value [1] is on record?
Its value is 105%.

What about the “% remaining (60 min)” value [2] of the same compound?
The value was 98.9%.

What about the “% remaining (60 min)” value [3] of the same compound?
The value was 115%.

What about the “fb (%)” value [4] of the same compound?
Its value is 64.3%.

What about the “fb (%)” value [5] of the same compound?
The value was 56.1%.

And the “fb (%)” value [6]?
The value was 50.2%.

For `Cc1cc(C[C@@H](NC(=O)N2CCC(c3cc4c([nH]c3=O)SCC3(CC3)C4)CC2)C(=O)N2CCN(C3CCN(C)CC3)CC2)cc2cn[nH]c12` [Example 46, (R)-N-(3-(7-methyl-1H-indazole-5-yl)-1-(4-(1-methylpiperidine-4-yl)piperazine-1-yl)-1-oxopropan-2-yl)-4-(7'-oxo-7',8'-dihydro-2'H,4'H-spiro[cyclopropane-1,3'-thiopyrano[2,3-b]pyridine]-6'-yl)piperidine-1-formamide], which IC50 (CGRP receptor complex; [9]) is on record?
Its IC50 is 150 pM.

Which IC50 (CGRP receptor complex) does the source give for `Cc1cc(C[C@@H](NC(=O)N2CCC(c3cc4c([nH]c3=O)SCC3CC43)CC2)C(=O)N2CCN(C3CCN(C)CC3)CC2)cc2cn[nH]c12` (stereo partly drawn) [Example 47, N-((R)-3-(7-methyl-1H-indazole-5-yl)-1-(4-(1-methylpiperidine-4-yl)piperazine-1-yl)-1-oxopropan-2-yl)-4-(5-oxo-1,1a,2,4,5,7b-hexahydrocyclopropo[4,5]thiopyrano[2,3-b]pyridine-6-yl)piperidine-1-formamide] here?
The IC50 was 240 pM.

Which IC50 (CGRP receptor complex; [9]) does the source give for `Cc1cc(C[C@@H](NC(=O)N2CCC(c3cc4c([nH]c3=O)SCCC4)CC2)C(=O)N2CCN(C3CCNCC3)CC2)cc2cn[nH]c12` [Example 49, (R)-N-(3-(7-methyl-1H-indazole-5-yl)-1-oxo-1-(4-(piperidine-4-yl)piperazine-1-yl)propan-2-yl)-4-(7-oxo-3,4,7,8-tetrahydro-2H-thiopyrano[2,3-b]pyridine-6-yl)piperidine-1-formamide] here?
Its IC50 is 140 pM.

For `Cc1cc(C[C@@H](NC(=O)N2CCC(c3cc4c([nH]c3=O)SCC4)CC2)C(=O)N2CCN(C3CCNCC3)CC2)cc2cn[nH]c12` [Example 50, (R)-N-(3-(7-methyl-1H-indazole-5-yl)-1-oxo-1-(4-(piperidine-4-yl)piperazine-1-yl)propan-2-yl)-4-(6-oxo-2,3,6,7-tetrahydrothieno[2,3-b]pyridine-5-yl)piperidine-1-formamide], which IC50 (CGRP receptor complex; [9]) is on record?
Its IC50 is 70 pM.

Which IC50 (CGRP receptor complex) does the source give for `Cc1cc(C[C@@H](NC(=O)N2CCC(c3cc4c([nH]c3=O)CCC4)CC2)C(=O)N2CCN(C3CCN(C)CC3)CC2)cc2cn[nH]c12` [Example 51, (R)-N-(3-(7-methyl-1H-indazole-5-yl)-1-(4-(1-methylpiperidine-4-yl)piperazine-1-yl)-1-oxopropan-2-yl)-4-(2-oxo-2,5,6,7-tetrahydro-1H-cyclopentadieno[b]pyridine-3-yl)piperidine-1-f ormamide] here?
The IC50 was 1940 pM.

With `Cc1cc(C[C@@H](NC(=O)N2CCC(c3cc4c([nH]c3=O)CCCC4)CC2)C(=O)N2CCN(C3CCN(C)CC3)CC2)cc2cn[nH]c12` [Example 52, (R)-N-(3-(7-methyl-1H-indazole-5-yl)-1-(4-(1-methylpiperidine-4-yl)piperazine-1-yl)-1-oxopropan-2-yl)-4-(2-oxo-1,2,5,6,7,8-hexahydroquinoline-3-yl)piperidine-1-formamide] as the compound, how does the IC50 (CGRP receptor complex; [9]) read?
Its IC50 is 1040 pM.
